Results reported in patent US20250339400A1, “ARTESUNATE POWDERS, PHARMACEUTICAL COMPOSITIONS AND METHODS OF MANUFACTURE” (AMIVAS, INC., priority 2024, published 2025).

Key:
[1] = cited from earlier work
[2] = Tapped density, Caleva tapped density tester; format: physicochemical; conditions: 35% RH exposure ~24 h; after tapping
[3] = Angle of repose, USP <1174>; format: physicochemical
Procedure: Angle of repose analyses were performed on artesunate powders based upon USP <1174> and under controlled relative humidity conditions. Polytetrafluoroethylene (PTFE) funnels with 8, 10 and 12 mm openings (i.e., Funnel 1, Funnel 2 and Funnel 3, respectively) were used in conjunction with a stainless steel receiving cylinder (Ø=30 mm). Powder samples were placed in the funnel while the funnel opening was closed with a glass slide. Once all the sample powder was loaded in the funnel, the glass slide was removed to allow powder to land on the cylinder below. The top and side of the funnel were tapped to enable the sample powder to drop down. The funnel height was maintained approximately 2-4 cm from the top of the powder pile to minimize the impact of falling powder on the tip of the cone. After the powder cone was built, height of the material forming the cone (h) and the radius (r) of the base were measured by a metal ruler. The angle of repose (θ) was calculated as follows: tan (θ)=h/r. Results were only considered valid when a symmetrical cone of powder was formed. Triplicate tests were attempted for each size of the funnels with the same amount of material being used.

[4] = Dynamic Vapor Sorption (DVS) moisture absorbance; format: physicochemical; conditions: 25 °C
Procedure: The instruments were calibrated with standard weights and a sodium bromide standard for humidity. One sample was equilibrated 50% RH for at least 5 days prior to analysis, while the other sample was equilibrated to 20% RH for at least 5 days prior to analysis. Approximately 10 to 20 mg of the powder samples were loaded into metal-coated quartz pans for analysis. The samples were analyzed at 25° C. in 10% RH steps from 5 to 95% RH (adsorption cycle) and from 95 to 5% RH (desorption cycle). The movement from one step to the next occurred either after satisfying the equilibrium criterion of 0.01% weight change in 30 minutes or, if the equilibrium criterion was not met, after 90 minutes. The percent weight change values were calculated using Microsoft Excel®2016. The results of this example are provided in Tables 6 and 7 and depicted in FIG. 1 (Sample Equilibrated to 20% RH) and FIG. 2 (Sample Equilibrated to 50% RH).

[5] = Tapped density, Caleva tapped density tester; format: physicochemical; conditions: after tapping
Procedure: The artesunate powders were then passed through a No. 18, 1.00 mm sieve and then added to a 10 mL Cole Parmer graduated cylinder. The graduated cylinder containing the artesunate powders was placed on a Caleva tapped density tester. The samples in the graduated cylinder were then subjected to the following sequence: 10 taps, 500 additional taps, 1250 additional taps, and 1250 additional taps. A volume was taken at the end of each set of taps, and when the volume was consistent for two sets in a row, the measurement was terminated. This final volume was then used to calculate the tapped density. Two replicate measurements were taken, and an average value was calculated.

[6] = SEM images of caking / agglomeration; format: physicochemical
Procedure: SEM images were collected using a Phenom XL Desktop SEM equipped with a CeB6 electron source (see FIG. 6). Phenom User Interface version 1.4 was used to acquire and save the images. Detailed image parameters are recorded in the footer of each image. Powder sample preparation for proper SEM results is known to those skilled in the art, and mainly relies on a proper monolayer of particles. These can be prepared with: the flick method, wherein a cotton swab is used to disperse particles onto a sample support by the “flick of a finger”; drop casting, where liquid solvents transfer particles onto a sample stub; or the dish method, where particles are spread over the area of a petri dish or similar flat surface using a spatula. A Nebula Particle Dispenser may also be used to prepare a uniform layer of powder. Although it is desirable to avoid agglomeration, the example as described herein sought to determine when agglomeration occurs at particular humidity levels. The samples tested herein were prepared with the flick method.

[7] = Bulk density, graduated cylinder; format: physicochemical
[8] = Static charge, Newtry static meter; format: physicochemical
Procedure: Static charge measurements were performed using a Newtry static meter. The powders were accumulated onto a piece of weigh paper and the surface gently leveled. The static meter was held approximately 25 millimeters from the surface of the material to obtain a reading. Three replicate measurements were taken, and an average was calculated.

[9] = cited from earlier work; remark: listed apart in the source
[10] = 10% RH exposure, at least five days
[11] = 20% RH exposure, at least five days
[12] = 30% RH exposure, at least five days
[13] = 40% RH exposure, at least five days
[14] = 50% RH exposure, at least five days

Bulk Density 3 (Tapped Densities of Powder Samples) [2]: 0.337 g/mL
angle of repose ([3]; 35% RH, Average of Funnels 1-3): 39 degrees
angle of repose ([3]; 35% RH, Funnel 1 (8 mm opening)): 35 degrees
angle of repose ([3]; 35% RH, Funnel 2 (10 mm opening)): 38 degrees
angle of repose ([3]; 35% RH, Funnel 3 (12 mm opening)): 45 degrees
flow properties based on USP 1174 ([3]; 35% relative humidity): acceptable
angle of repose ([3]; 50% RH, Average of Funnels 1-3): 43 degrees
angle of repose ([3]; 50% RH, Funnel 1 (8 mm opening)): 42 degrees
angle of repose ([3]; 50% RH, Funnel 2 (10 mm opening)): 45 degrees
angle of repose ([3]; 50% RH, Funnel 3 (12 mm opening)): 42 degrees
flow property based on USP 1174 ([3]; 50% relative humidity): passable but may hang up
% change (DVS) ([4]; sample equilibrated to 20% RH, RH step 95, total 360 min): 100.08%
% change (DVS) ([4]; sample equilibrated to 20% RH, adsorption, RH step 5, total 0 min): 100.00%
% change (DVS) ([4]; sample equilibrated to 20% RH, adsorption, RH step 5, total 60 min): 100.00%
% change (DVS) ([4]; sample equilibrated to 20% RH, adsorption, RH step 15, total 90 min): 100.02%
% change (DVS) ([4]; sample equilibrated to 20% RH, adsorption, RH step 25, total 120 min): 100.02%
% change (DVS) ([4]; sample equilibrated to 20% RH, adsorption, RH step 35, total 150 min): 100.03%
% change (DVS) ([4]; sample equilibrated to 20% RH, adsorption, RH step 45, total 180 min): 100.03%
% change (DVS) ([4]; sample equilibrated to 20% RH, adsorption, RH step 55, total 210 min): 100.03%
% change (DVS) ([4]; sample equilibrated to 20% RH, adsorption, RH step 65, total 240 min): 100.04%
% change (DVS) ([4]; sample equilibrated to 20% RH, adsorption, RH step 75, total 270 min): 100.05%
% change (DVS) ([4]; sample equilibrated to 20% RH, adsorption, RH step 85, total 300 min): 100.06%
% change (DVS) ([4]; sample equilibrated to 20% RH, desorption, RH step 5, total 630 min): 100.04%
% change (DVS) ([4]; sample equilibrated to 20% RH, desorption, RH step 15, total 600 min): 100.04%
% change (DVS) ([4]; sample equilibrated to 20% RH, desorption, RH step 25, total 570 min): 100.04%
% change (DVS) ([4]; sample equilibrated to 20% RH, desorption, RH step 35, total 540 min): 100.04%
% change (DVS) ([4]; sample equilibrated to 20% RH, desorption, RH step 45, total 510 min): 100.05%
% change (DVS) ([4]; sample equilibrated to 20% RH, desorption, RH step 55, total 480 min): 100.06%
% change (DVS) ([4]; sample equilibrated to 20% RH, desorption, RH step 65, total 450 min): 100.06%
% change (DVS) ([4]; sample equilibrated to 20% RH, desorption, RH step 75, total 420 min): 100.06%
% change (DVS) ([4]; sample equilibrated to 20% RH, desorption, RH step 85, total 390 min): 100.07%
% change (DVS) ([4]; sample equilibrated to 50% RH, RH step 95, total 360 min): 100.08%
% change (DVS) ([4]; sample equilibrated to 50% RH, adsorption, RH step 5, total 0 min): 100.00%
% change (DVS) ([4]; sample equilibrated to 50% RH, adsorption, RH step 5, total 30 min): 100.01%
% change (DVS) ([4]; sample equilibrated to 50% RH, adsorption, RH step 15, total 60 min): 100.01%
% change (DVS) ([4]; sample equilibrated to 50% RH, adsorption, RH step 25, total 90 min): 100.01%
% change (DVS) ([4]; sample equilibrated to 50% RH, adsorption, RH step 35, total 120 min): 100.01%
% change (DVS) ([4]; sample equilibrated to 50% RH, adsorption, RH step 45, total 150 min): 100.02%
% change (DVS) ([4]; sample equilibrated to 50% RH, adsorption, RH step 55, total 180 min): 100.02%
% change (DVS) ([4]; sample equilibrated to 50% RH, adsorption, RH step 65, total 240 min): 100.03%
% change (DVS) ([4]; sample equilibrated to 50% RH, adsorption, RH step 75, total 270 min): 100.04%
% change (DVS) ([4]; sample equilibrated to 50% RH, adsorption, RH step 85, total 300 min): 100.05%
% change (DVS) ([4]; sample equilibrated to 50% RH, desorption, RH step 5, total 660 min): 100.02%
% change (DVS) ([4]; sample equilibrated to 50% RH, desorption, RH step 15, total 630 min): 100.02%
% change (DVS) ([4]; sample equilibrated to 50% RH, desorption, RH step 25, total 600 min): 100.02%
% change (DVS) ([4]; sample equilibrated to 50% RH, desorption, RH step 35, total 570 min): 100.02%
% change (DVS) ([4]; sample equilibrated to 50% RH, desorption, RH step 45, total 540 min): 100.03%
% change (DVS) ([4]; sample equilibrated to 50% RH, desorption, RH step 55, total 510 min): 100.04%
% change (DVS) ([4]; sample equilibrated to 50% RH, desorption, RH step 65, total 480 min): 100.05%
% change (DVS) ([4]; sample equilibrated to 50% RH, desorption, RH step 75, total 450 min): 100.05%
% change (DVS) ([4]; sample equilibrated to 50% RH, desorption, RH step 85, total 420 min): 100.06%
Average Bulk Density (Tapped Densities of Powder Samples) ([5]; 20% RH exposure ~24 h): 0.303 g/mL
Bulk Density 1 (Tapped Densities of Powder Samples) ([5]; 20% RH exposure ~24 h): 0.307 g/mL
Bulk Density 2 (Tapped Densities of Powder Samples) ([5]; 20% RH exposure ~24 h): 0.318 g/mL
Bulk Density 3 (Tapped Densities of Powder Samples) ([5]; 20% RH exposure ~24 h): 0.283 g/mL
Average Bulk Density (Tapped Densities of Powder Samples) ([5]; 35% RH exposure ~24 h): 0.318 g/mL
Bulk Density 1 (Tapped Densities of Powder Samples) ([5]; 35% RH exposure ~24 h): 0.317 g/mL
Bulk Density 2 (Tapped Densities of Powder Samples) ([5]; 35% RH exposure ~24 h): 0.300 g/mL
Average Bulk Density (Tapped Densities of Powder Samples) ([5]; 50% RH exposure ~24 h): 0.317 g/mL
Bulk Density 1 (Tapped Densities of Powder Samples) ([5]; 50% RH exposure ~24 h): 0.320 g/mL
Bulk Density 2 (Tapped Densities of Powder Samples) ([5]; 50% RH exposure ~24 h): 0.312 g/mL
Bulk Density 3 (Tapped Densities of Powder Samples) ([5]; 50% RH exposure ~24 h): 0.319 g/mL
caking / agglomeration in SEM images ([6]; 20% RH (FIG. 6)): strong caking, or agglomeration
caking in SEM images ([6]; 35% RH (FIG. 7)): less caking
agglomeration / caking in SEM images ([6]; 50% RH (FIG. 8)): significant agglomeration, or caking
Average Bulk Density ([7]; 20% RH exposure ~24 h): 0.203 g/mL
Bulk Density 1 ([7]; 20% RH exposure ~24 h): 0.193 g/mL
Bulk Density 2 ([7]; 20% RH exposure ~24 h): 0.231 g/mL
Average Bulk Density ([7]; 50% RH exposure ~24 h): 0.203 g/mL
Bulk Density 1 ([7]; 50% RH exposure ~24 h): 0.200 g/mL
Bulk Density 2 ([7]; 50% RH exposure ~24 h): 0.208 g/mL
Average Static Reading [8, 10]: 0.36 kV
Static Reading 1 [8, 10]: 0.40 kV
Static Reading 2 [8, 10]: 0.38 kV
Static Reading 3 [8, 10]: 0.30 kV
Average Static Reading ([8]; 11% RH): 0.36 kV
Average Static Reading [8, 11]: 0.13 kV
Static Reading 1 [8, 11]: 0.12 kV
Static Reading 2 [8, 11]: 0.13 kV
Static Reading 3 [8, 11]: 0.13 kV
Average Static Reading ([8]; 22% RH): 0.13 kV
Average Static Reading [8, 12]: −0.04 kV
Static Reading 1 [8, 12]: −0.04 kV
Static Reading 2 [8, 12]: −0.04 kV
Static Reading 3 [8, 12]: −0.04 kV
Average Static Reading [8, 13]: 0.01 kV
Static Reading 1 [8, 13]: 0.02 kV
Static Reading 2 [8, 13]: 0.01 kV
Static Reading 3 [8, 13]: 0.00 kV
Average Static Reading [8, 14]: −0.05 kV
Static Reading 1 [8, 14]: −0.05 kV
Static Reading 2 [8, 14]: −0.05 kV
Static Reading 3 [8, 14]: −0.05 kV
SMILES: C[C@H]1[C@H](OC(=O)CCC(=O)O)O[C@@H]2O[C@@]3(C)CC[C@H]4[C@H](C)CC[C@@H]1[C@@]24OO3 [artesunate powder, 4-oxo-4-[[(1R,4S,5R,8S,9R,10S,12R,13R)-1,5,9-trimethyl-11,14,15,16-tetraoxatetracyclo[10.3.1.0^4,13.0^8,13]hexadecan-10-yl]oxy]butanoic acid]
solubility in organic solvents ([1]; organic solvents, such as acetone and methanol): soluble
solubility in water ([1]; water): slightly soluble
stability under basic and acidic conditions ([9]; basic and acidic conditions): unstable
degradation by moisture and heat ([9]; moisture and heat (Agnihotri J. et al, 2013)): susceptible to degradation
